These results are taken from patent publication US20240239804A1, “FUROINDAZOLE DERIVATIVES AS ANTAGONISTS OR INHIBITORS OF GPR84” (Bayer Aktiengesellschaft, priority 2021, published 2024).

This experiment deals with T1, human GPR84 receptor (Homo sapiens, UniProt Q9NQS5).
T1 construct: frozen aliquots prepared by acCELLerate; host or cells: CHO-K1
T1 sequence (Q9NQS5 whole entry): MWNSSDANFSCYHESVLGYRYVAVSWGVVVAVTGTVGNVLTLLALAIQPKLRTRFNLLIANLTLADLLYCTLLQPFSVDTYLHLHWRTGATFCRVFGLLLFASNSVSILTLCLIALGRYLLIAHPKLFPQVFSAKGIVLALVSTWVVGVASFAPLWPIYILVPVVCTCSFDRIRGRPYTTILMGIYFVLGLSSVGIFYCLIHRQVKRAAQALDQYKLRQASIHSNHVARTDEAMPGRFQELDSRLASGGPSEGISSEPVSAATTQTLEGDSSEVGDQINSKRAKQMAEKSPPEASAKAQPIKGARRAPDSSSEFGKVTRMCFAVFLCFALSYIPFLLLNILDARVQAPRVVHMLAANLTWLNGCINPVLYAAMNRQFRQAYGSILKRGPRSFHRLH
In words: cAMP HTRF assay for identification of cellular GPR84 antagonists. The class given is cell-based. As to conditions: CHO-K1 cells stably expressing human GPR84; Forskolin plus agonist 6-OAU; cAMP HTRF readout; average or median values. In outline: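 CHO-K1 cells stably expressing human GPR84, preincubated with compound 30 min at room temperature, then stimulated 30 min with 6-OAU (EC80) plus forskolin (EC90). cAMP measured by HTRF 665/620 nm ratio after 60 min lysis; 11 concentrations from 20 μM to 0.07 nM in duplicate, IC50 by 4-parameter fit.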
In general terms: In TR-FRET formats the signal depends on donor and acceptor labels being close together.
Turning to `Cc1c(C(=O)NCCN2CCN(C)CC2)oc2c1-c1nn(Cc3ccccc3Cl)cc1CC2` [Example 11, 2-[(2-chlorophenyl)methyl]-8-methyl-N-[2-(4-methylpiperazin-1-yl)ethyl]-4,5-dihydro-2H-furo[2,3-g]indazole-7-carboxamide], the IC50 worked out at 230 nM.

Take `Cc1c(C(=O)NCCN2CCC2)oc2c1-c1nn(Cc3ccc(Cl)cc3)cc1CC2` [Example 26, N-[2-(azetidin-1-yl)ethyl]-2-[(4-chlorophenyl)methyl]-8-methyl-4,5-dihydro-2H-furo[2,3-g]indazole-7-carboxamide]: the IC50 amounted to 1630 nM.

`Cc1c(C(=O)NCC2CC2)oc2c1-c1nn(Cc3ccc(Cl)cc3)cc1CC2` [Example 51, 2-[(4-chlorophenyl)methyl]-N-(cyclopropylmethyl)-8-methyl-4,5-dihydro-2H-furo[2,3-g]indazole-7-carboxamide]: the IC50 was determined as 2720 nM.

Take `Cc1c(C(=O)N(C)Cc2cccnc2)oc2c1-c1nn(Cc3ccc(Cl)cc3)cc1CC2` [Example 69, 2-[(4-chlorophenyl)methyl]-N,8-dimethyl-N-[(pyridin-3-yl)methyl]-4,5-dihydro-2H-furo[2,3-g]indazole-7-carboxamide]: the IC50 stood at 9400 nM.

On to `Cc1c(C(=O)NCC2CCOCC2)oc2c1-c1nn(Cc3ccc(Cl)cc3)cc1CC2` [Example 52, 2-[(4-chlorophenyl)methyl]-8-methyl-N-[(oxan-4-yl)methyl]-4,5-dihydro-2H-furo[2,3-g]indazole-7-carboxamide], for which the IC50 amounted to 2960 nM.

`Cc1c(C(=O)NCc2ccc(C(N)=O)cc2)oc2c1-c1nn(Cc3ccc(Cl)cc3)cc1CC2` [Example 42, N-[(4-carbamoylphenyl)methyl]-2-[(4-chlorophenyl)methyl]-8-methyl-4,5-dihydro-2H-furo[2,3-g]indazole-7-carboxamide]: the IC50 came out at 720 nM.

As for `Cc1c(C(=O)NCCN2CCCCC2)oc2c1-c1nn(Cc3ccccc3Cl)cc1CC2` [Example 13, 2-[(2-chlorophenyl)methyl]-8-methyl-N-[2-(piperidin-1-yl)ethyl]-4,5-dihydro-2H-furo[2,3-g]indazole-7-carboxamide], the IC50 turned out to be 360 nM.

Take `Cc1c(C(=O)NCCO)oc2c1-c1nn(Cc3ccc(Cl)cc3)cc1CC2` [Example 58, 2-[(4-chlorophenyl)methyl]-N-(2-hydroxyethyl)-8-methyl-4,5-dihydro-2H-furo[2,3-g]indazole-7-carboxamide]: the IC50 stood at 5220 nM.

Turning to `CC(=O)Nc1ccc(CNC(=O)c2oc3c(c2C)-c2nn(Cc4ccc(Cl)cc4)cc2CC3)cc1` [Example 43, N-[(4-acetamidophenyl)methyl]-2-[(4-chlorophenyl)methyl]-8-methyl-4,5-dihydro-2H-furo[2,3-g]indazole-7-carboxamide], the half-inhibitory concentration (IC50) stood at 800 nM.

Turning to `Cc1c(C(=O)NCc2nccn2C)oc2c1-c1nn(Cc3ccc(Cl)cc3)cc1CC2` [Example 53, 2-[(4-chlorophenyl)methyl]-8-methyl-N-[(1-methyl-1H-imidazol-2-yl)methyl]-4,5-dihydro-2H-furo[2,3-g]indazole-7-carboxamide], the IC50 came out at 3040 nM.

As to `Cc1ccccc1Cn1cc2c(n1)-c1c(oc(C(=O)NCC3CCCN3)c1C)CC2` (racemic) [Example 7, 8-methyl-2-[(2-methylphenyl)methyl]-N-{[(2RS)-pyrrolidin-2-yl]methyl}-4,5-dihydro-2H-furo[2,3-g]indazole-7-carboxamide], the IC50 was 680 nM.

For the compound `Cc1ccc(CNC(=O)c2oc3c(c2C)-c2nn(Cc4ccccc4Cl)cc2CC3)cc1` [Example 10, 2-[(2-chlorophenyl)methyl]-8-methyl-N-[(4-methylphenyl)methyl]-4,5-dihydro-2H-furo[2,3-g]indazole-7-carboxamide], the IC50 was determined as 42 nM.

In the case of `COCCNC(=O)c1oc2c(c1C)-c1nn(Cc3ccc(Cl)cc3)cc1CC2` [Example 40, 2-[(4-chlorophenyl)methyl]-N-(2-methoxyethyl)-8-methyl-4,5-dihydro-2H-furo[2,3-g]indazole-7-carboxamide], the IC50 was 410 nM.

On to `Cc1c(C(=O)NC2CCC(=O)NC2)oc2c1-c1nn(Cc3ccc(Cl)cc3)cc1CC2` (stereo not shown) [Example 81, 2-[(4-chlorophenyl)methyl]-8-methyl-N-(6-oxopiperidin-3-yl)-4,5-dihydro-2H-furo[2,3-g]indazole-7-carboxamide], for which the IC50 was 16100 nM.

As to `Cc1c(C(=O)N2CC(C)OC(C)C2)oc2c1-c1nn(Cc3ccc(Cl)cc3)cc1CC2` (stereo not shown) [Example 75, {2-[(4-chlorophenyl)methyl]-8-methyl-4,5-dihydro-2H-furo[2,3-g]indazol-7-yl}(2,6-dimethylmorpholin-4-yl)methanone], the IC50 was 12300 nM.

As for `Cc1c(C(=O)NCc2cc[nH]n2)oc2c1-c1nn(Cc3ccc(Cl)cc3)cc1CC2` [Example 41, 2-[(4-chlorophenyl)methyl]-8-methyl-N-[(1H-pyrazol-3-yl)methyl]-4,5-dihydro-2H-furo[2,3-g]indazole-7-carboxamide], the IC50 turned out to be 520 nM.

For the compound `Cc1c(C(=O)NCCc2ccccc2)oc2c1-c1nn(Cc3ccc(Cl)cc3)cc1CC2` [Example 57, 2-[(4-chlorophenyl)methyl]-8-methyl-N-(2-phenylethyl)-4,5-dihydro-2H-furo[2,3-g]indazole-7-carboxamide], the IC50 was 5040 nM.

`COCCNC(=O)CNC(=O)c1oc2c(c1C)-c1nn(Cc3ccc(Cl)cc3)cc1CC2` [Example 32, 2-[(4-chlorophenyl)methyl]-N-{2-[(2-methoxyethyl)amino]-2-oxoethyl}-8-methyl-4,5-dihydro-2H-furo[2,3-g]indazole-7-carboxamide]: the IC50 turned out to be 2460 nM.

For the compound `Cc1c(C(=O)N(C)Cc2ccco2)oc2c1-c1nn(Cc3ccc(Cl)cc3)cc1CC2` [Example 72, 2-[(4-chlorophenyl)methyl]-N-[(furan-2-yl)methyl]-N,8-dimethyl-4,5-dihydro-2H-furo[2,3-g]indazole-7-carboxamide], the IC50 was found to be 9960 nM.

For `Cc1c(C(=O)NCc2nccs2)oc2c1-c1nn(Cc3ccc(Cl)cc3)cc1CC2` [Example 38, 2-[(4-chlorophenyl)methyl]-8-methyl-N-[(1,3-thiazol-2-yl)methyl]-4,5-dihydro-2H-furo[2,3-g]indazole-7-carboxamide], the IC50 worked out at 210 nM.

With `Cc1c(C(=O)NCC2CCCO2)oc2c1-c1nn(Cc3cccc(Cl)c3)cc1CC2` (single isomer, unassigned) [Example 15-1], the concentration for half-maximal inhibition (IC50) came to 88 nM.

Consider `CCNC(=O)CNC(=O)c1oc2c(c1C)-c1nn(Cc3ccc(Cl)cc3)cc1CC2` [Example 30, 2-[(4-chlorophenyl)methyl]-N-[2-(ethylamino)-2-oxoethyl]-8-methyl-4,5-dihydro-2H-furo[2,3-g]indazole-7-carboxamide], for which the half-inhibitory concentration (IC50) stood at 500 nM.

`Cc1c(C(=O)NCc2ccon2)oc2c1-c1nn(Cc3ccc(Cl)cc3)cc1CC2` [Example 27, 2-[(4-chlorophenyl)methyl]-8-methyl-N-[(1,2-oxazol-3-yl)methyl]-4,5-dihydro-2H-furo[2,3-g]indazole-7-carboxamide]: the IC50 turned out to be 150 nM.

On to `Cc1c(C(=O)NCC(=O)N(C)C)oc2c1-c1nn(Cc3ccc(Cl)cc3)cc1CC2` [Example 36, 2-[(4-chlorophenyl)methyl]-N-[2-(dimethylamino)-2-oxoethyl]-8-methyl-4,5-dihydro-2H-furo[2,3-g]indazole-7-carboxamide], for which the IC50 amounted to 1190 nM.

Regarding `Cc1c(C(=O)NC(C)(C)C#N)oc2c1-c1nn(Cc3ccc(Cl)cc3)cc1CC2` [Example 86, 2-[(4-chlorophenyl)methyl]-N-(2-cyanopropan-2-yl)-8-methyl-4,5-dihydro-2H-furo[2,3-g]indazole-7-carboxamide], the IC50 stood at 17100 nM.

In the case of `Cc1c(C(=O)N2CCCC(C(N)=O)C2)oc2c1-c1nn(Cc3ccc(Cl)cc3)cc1CC2` (stereo not shown) [Example 88, 1-{2-[(4-chlorophenyl)methyl]-8-methyl-4,5-dihydro-2H-furo[2,3-g]indazole-7-carbonyl}piperidine-3-carboxamide], the IC50 was found to be 17300 nM.

For `Cc1c(C(=O)NCCN2CCN(C)CC2)oc2c1-c1nn(Cc3ccc(F)cc3Cl)cc1CC2` [Example 93], the IC50 worked out at 820 nM.

Consider `Cc1c(C(=O)NCc2cncn2C)oc2c1-c1nn(Cc3ccc(Cl)cc3)cc1CC2` [Example 54, 2-[(4-chlorophenyl)methyl]-8-methyl-N-[(1-methyl-1H-imidazol-5-yl)methyl]-4,5-dihydro-2H-furo[2,3-g]indazole-7-carboxamide], for which the IC50 is 3390 nM.

A word on the IC50: it is the concentration that gives 50% inhibition.
